Results as given in ChEMBL document CHEMBL3991601, “The target landscape of clinical kinase drugs” (Science, 2017).
Calls of active or inactive are those of the source. Rule as the data show it, for most assays here: actives have a measured Kd and inactives only a lower limit.

Experiments:
[1] = target: Bone morphogenetic protein receptor type-1A (Homo sapiens, UniProt P36894)
[2] = target: Serine/threonine-protein kinase MRCK gamma (Homo sapiens, UniProt Q6DT37)
[3] = target: Serine/threonine-protein kinase SIK3 (Homo sapiens, UniProt Q9Y2K2)
[4] = target: Dual specificity protein kinase CLK2 (Homo sapiens, UniProt P49760)
Glycine--tRNA ligase = target: T1, Glycine--tRNA ligase (Homo sapiens, UniProt P41250)
T1 sequence (P41250 whole entry): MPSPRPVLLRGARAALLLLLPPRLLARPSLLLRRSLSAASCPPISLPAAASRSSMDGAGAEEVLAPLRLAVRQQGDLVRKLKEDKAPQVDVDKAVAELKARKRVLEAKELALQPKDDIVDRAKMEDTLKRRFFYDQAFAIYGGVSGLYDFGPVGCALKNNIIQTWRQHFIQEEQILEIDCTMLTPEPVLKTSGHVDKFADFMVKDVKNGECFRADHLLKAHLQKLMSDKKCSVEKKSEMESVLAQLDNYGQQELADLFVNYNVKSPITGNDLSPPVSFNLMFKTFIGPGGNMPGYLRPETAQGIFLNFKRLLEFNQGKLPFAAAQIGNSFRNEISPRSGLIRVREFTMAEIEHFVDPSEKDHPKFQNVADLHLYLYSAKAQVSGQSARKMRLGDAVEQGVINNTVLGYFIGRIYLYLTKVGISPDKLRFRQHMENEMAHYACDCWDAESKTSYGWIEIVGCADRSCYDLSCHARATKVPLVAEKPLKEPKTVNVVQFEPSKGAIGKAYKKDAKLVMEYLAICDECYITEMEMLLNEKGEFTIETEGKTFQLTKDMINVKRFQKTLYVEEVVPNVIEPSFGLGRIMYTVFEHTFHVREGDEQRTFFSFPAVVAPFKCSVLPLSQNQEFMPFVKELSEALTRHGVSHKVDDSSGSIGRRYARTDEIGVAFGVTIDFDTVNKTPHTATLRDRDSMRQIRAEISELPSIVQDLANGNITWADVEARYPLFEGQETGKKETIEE

Ephrin type-A receptor 5 = Ephrin type-A receptor 5 (Homo sapiens, UniProt P54756)
[5] = target: T2, Adenine phosphoribosyltransferase (Homo sapiens, UniProt P07741)
T2 sequence (P07741 whole entry): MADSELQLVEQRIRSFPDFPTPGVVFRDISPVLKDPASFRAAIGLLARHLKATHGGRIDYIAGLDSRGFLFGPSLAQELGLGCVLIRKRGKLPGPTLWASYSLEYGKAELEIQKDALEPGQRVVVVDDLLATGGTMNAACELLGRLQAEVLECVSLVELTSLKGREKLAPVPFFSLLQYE

Ephrin type-A receptor 2 = Ephrin type-A receptor 2 (Homo sapiens, UniProt P29317)
[6] = target: Tyrosine-protein kinase ABL1 (Homo sapiens, UniProt P00519)
[7] = target: Dual specificity mitogen-activated protein kinase kinase 1 (Homo sapiens, UniProt Q02750)
[8] = target: Protein kinase C beta type (Homo sapiens, UniProt P05771)
[9] = target: Atypical kinase COQ8A, mitochondrial (Homo sapiens, UniProt Q8NI60)
[10] = target: Dual specificity tyrosine-phosphorylation-regulated kinase 1A (Homo sapiens, UniProt Q13627)
[11] = target: Tyrosine-protein kinase BTK (Homo sapiens, UniProt Q06187)
Rab-like protein 3 = target: T3, Rab-like protein 3 (Homo sapiens, UniProt Q5HYI8)
T3 sequence (Q5HYI8 whole entry): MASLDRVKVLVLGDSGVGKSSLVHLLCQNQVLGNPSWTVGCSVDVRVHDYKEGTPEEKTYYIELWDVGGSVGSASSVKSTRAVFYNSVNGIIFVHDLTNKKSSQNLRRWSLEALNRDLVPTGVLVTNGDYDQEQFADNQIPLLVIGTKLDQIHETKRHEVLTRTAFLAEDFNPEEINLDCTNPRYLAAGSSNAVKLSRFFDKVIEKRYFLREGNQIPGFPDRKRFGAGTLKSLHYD

[12] = target: T4, Serine/threonine-protein kinase TBK1 (Homo sapiens, UniProt Q9UHD2)
T4 sequence (Q9UHD2 whole entry): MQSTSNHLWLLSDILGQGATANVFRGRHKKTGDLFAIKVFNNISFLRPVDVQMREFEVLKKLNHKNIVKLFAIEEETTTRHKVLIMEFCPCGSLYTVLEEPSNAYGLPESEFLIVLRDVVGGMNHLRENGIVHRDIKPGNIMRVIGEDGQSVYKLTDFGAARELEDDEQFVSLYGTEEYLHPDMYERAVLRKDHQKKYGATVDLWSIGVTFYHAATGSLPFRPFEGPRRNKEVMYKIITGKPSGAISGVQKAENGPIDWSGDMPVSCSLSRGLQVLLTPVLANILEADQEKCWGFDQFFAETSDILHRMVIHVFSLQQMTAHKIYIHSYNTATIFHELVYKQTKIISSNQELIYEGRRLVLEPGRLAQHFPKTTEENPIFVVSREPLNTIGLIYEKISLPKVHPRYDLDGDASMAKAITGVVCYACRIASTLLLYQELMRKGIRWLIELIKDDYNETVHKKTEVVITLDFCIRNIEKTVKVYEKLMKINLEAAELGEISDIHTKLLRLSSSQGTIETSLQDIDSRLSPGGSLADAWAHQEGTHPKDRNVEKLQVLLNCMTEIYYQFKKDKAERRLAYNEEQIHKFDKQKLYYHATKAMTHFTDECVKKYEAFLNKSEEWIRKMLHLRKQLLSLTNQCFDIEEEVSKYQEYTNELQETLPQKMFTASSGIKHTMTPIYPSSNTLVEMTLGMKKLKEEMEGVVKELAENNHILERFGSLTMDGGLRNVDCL

[13] = target: Tyrosine-protein kinase Fer (Homo sapiens, UniProt P16591)
Also: in the data inactive means no Kd found up to 30 µM.

Tyrosine-protein kinase ABL1, sequence (P00519 whole entry): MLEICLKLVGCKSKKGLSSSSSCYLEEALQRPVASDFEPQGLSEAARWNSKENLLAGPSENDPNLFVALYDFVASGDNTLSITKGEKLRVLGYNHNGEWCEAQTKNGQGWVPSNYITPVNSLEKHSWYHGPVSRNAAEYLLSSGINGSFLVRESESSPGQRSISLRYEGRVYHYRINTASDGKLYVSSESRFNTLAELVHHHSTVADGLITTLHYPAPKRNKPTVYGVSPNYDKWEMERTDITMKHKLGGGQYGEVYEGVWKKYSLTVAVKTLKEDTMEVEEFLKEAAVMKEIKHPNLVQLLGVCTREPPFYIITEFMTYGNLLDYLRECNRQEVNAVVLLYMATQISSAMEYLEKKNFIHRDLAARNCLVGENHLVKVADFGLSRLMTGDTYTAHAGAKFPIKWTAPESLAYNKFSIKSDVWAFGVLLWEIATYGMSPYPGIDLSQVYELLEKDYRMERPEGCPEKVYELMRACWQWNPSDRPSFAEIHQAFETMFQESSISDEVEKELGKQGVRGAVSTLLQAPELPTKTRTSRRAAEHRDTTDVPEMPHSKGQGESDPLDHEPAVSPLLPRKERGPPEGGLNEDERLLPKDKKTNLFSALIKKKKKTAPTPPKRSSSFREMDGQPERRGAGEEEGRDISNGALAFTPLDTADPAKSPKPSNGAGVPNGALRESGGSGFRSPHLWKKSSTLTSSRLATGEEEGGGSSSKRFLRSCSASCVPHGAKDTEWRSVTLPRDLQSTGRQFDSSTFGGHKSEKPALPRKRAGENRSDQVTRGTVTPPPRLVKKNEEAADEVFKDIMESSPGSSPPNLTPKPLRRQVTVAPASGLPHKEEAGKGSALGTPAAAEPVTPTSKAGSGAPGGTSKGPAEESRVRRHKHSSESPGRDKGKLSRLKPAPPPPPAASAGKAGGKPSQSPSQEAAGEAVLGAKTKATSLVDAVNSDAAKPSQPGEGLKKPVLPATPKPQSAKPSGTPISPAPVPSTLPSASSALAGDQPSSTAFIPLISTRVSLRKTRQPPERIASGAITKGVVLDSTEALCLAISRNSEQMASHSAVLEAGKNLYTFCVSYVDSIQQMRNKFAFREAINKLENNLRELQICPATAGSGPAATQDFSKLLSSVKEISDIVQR
Tyrosine-protein kinase Fer, sequence (P16591 whole entry): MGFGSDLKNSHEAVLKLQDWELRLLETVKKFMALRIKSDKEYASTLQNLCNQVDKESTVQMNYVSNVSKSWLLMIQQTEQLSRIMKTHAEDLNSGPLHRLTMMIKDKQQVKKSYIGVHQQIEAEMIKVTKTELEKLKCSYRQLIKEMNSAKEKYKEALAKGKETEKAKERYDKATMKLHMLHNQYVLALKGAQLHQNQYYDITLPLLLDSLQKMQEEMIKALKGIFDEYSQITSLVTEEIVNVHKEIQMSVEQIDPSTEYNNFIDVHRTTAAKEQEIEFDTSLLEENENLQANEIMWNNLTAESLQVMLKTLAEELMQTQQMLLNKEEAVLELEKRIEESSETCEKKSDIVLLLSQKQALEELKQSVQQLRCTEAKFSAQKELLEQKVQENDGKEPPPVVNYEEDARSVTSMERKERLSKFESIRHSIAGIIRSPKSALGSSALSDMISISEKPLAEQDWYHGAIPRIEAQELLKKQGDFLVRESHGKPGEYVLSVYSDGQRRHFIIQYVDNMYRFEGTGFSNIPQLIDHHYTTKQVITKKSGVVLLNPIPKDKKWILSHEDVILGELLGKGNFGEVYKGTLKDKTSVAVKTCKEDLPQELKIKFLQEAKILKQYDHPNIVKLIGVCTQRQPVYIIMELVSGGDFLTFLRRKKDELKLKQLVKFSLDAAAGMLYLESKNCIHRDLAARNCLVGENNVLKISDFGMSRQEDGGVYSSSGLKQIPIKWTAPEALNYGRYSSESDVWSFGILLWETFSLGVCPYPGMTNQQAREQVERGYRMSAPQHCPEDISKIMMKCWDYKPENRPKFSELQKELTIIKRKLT
Dual specificity mitogen-activated protein kinase kinase 1, sequence (Q02750 whole entry): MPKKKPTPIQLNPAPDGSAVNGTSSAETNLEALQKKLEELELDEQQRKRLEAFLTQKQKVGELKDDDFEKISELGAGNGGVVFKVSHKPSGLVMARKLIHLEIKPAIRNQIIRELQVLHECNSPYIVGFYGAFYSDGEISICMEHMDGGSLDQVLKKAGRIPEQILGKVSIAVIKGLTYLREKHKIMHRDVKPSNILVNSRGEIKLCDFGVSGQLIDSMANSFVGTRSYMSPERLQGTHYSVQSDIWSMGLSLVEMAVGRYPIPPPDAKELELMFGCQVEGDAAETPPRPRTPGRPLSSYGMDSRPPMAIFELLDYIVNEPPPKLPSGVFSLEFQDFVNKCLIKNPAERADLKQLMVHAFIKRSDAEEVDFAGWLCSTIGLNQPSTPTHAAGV
Atypical kinase COQ8A, mitochondrial, sequence (Q8NI60 whole entry): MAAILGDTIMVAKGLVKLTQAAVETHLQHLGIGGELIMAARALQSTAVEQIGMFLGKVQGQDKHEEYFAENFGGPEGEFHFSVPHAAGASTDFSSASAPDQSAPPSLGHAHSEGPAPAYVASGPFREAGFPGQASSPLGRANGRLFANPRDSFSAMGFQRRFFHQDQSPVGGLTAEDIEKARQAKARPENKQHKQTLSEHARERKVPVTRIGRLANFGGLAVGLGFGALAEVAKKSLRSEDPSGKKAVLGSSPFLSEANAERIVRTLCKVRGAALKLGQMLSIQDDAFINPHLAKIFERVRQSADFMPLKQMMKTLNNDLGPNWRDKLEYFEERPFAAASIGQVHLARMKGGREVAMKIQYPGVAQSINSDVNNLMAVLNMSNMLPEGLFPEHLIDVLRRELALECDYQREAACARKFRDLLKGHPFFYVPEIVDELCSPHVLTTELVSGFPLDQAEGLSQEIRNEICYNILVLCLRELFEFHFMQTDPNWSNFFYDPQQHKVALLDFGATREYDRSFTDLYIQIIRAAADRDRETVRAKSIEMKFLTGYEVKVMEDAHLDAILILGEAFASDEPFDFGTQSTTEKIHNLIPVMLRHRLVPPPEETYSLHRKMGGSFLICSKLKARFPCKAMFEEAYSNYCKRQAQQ
Serine/threonine-protein kinase SIK3, sequence (Q9Y2K2 whole entry): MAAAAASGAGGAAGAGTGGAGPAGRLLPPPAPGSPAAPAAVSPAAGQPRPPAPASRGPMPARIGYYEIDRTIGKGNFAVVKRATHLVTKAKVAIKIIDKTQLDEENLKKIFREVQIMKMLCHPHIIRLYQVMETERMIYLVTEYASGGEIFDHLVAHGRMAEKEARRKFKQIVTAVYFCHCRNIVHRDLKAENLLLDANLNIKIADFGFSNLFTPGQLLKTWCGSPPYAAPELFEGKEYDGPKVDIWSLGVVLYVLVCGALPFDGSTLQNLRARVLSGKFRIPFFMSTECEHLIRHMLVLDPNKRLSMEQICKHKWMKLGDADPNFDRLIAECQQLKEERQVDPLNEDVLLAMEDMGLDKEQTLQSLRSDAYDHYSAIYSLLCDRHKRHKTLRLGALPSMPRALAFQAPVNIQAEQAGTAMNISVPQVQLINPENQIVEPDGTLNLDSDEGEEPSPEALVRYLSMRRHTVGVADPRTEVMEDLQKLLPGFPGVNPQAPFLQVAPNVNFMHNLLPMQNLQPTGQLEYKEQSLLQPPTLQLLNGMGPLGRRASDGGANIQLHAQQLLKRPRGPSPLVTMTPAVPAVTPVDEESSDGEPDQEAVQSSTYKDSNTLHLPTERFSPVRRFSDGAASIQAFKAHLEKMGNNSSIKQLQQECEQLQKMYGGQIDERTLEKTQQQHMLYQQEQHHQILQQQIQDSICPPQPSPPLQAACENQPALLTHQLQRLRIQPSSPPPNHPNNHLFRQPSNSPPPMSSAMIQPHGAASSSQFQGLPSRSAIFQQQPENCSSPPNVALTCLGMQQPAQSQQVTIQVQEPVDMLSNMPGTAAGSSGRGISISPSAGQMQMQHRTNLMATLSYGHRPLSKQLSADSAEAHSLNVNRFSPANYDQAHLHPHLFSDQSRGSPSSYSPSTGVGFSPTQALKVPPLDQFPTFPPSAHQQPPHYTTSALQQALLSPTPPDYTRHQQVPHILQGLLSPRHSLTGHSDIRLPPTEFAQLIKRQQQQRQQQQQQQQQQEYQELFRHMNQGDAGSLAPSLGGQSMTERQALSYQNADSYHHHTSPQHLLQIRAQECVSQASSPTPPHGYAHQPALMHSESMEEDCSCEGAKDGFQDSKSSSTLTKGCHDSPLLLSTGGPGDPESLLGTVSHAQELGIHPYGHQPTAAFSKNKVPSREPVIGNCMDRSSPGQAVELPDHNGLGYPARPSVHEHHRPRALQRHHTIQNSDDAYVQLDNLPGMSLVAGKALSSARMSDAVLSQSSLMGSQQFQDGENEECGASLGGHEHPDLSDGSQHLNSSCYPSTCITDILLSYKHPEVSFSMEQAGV
Protein kinase C beta type, sequence (P05771 whole entry): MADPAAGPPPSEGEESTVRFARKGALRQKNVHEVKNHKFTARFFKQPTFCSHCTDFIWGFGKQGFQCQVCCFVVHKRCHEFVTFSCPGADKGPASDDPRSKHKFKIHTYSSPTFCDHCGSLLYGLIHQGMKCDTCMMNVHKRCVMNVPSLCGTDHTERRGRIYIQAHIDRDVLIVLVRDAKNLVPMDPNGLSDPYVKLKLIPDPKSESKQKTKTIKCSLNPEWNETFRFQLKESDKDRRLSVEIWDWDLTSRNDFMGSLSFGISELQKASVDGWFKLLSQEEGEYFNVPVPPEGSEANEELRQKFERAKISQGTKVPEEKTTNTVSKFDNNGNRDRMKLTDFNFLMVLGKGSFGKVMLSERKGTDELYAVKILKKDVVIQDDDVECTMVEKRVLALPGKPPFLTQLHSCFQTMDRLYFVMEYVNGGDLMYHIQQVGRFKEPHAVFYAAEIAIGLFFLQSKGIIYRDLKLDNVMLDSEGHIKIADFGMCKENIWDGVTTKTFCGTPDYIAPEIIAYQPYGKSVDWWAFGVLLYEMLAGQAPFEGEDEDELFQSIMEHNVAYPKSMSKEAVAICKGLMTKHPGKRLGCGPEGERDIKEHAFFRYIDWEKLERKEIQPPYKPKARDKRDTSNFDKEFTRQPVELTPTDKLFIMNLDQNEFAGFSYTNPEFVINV

Row | Structure (SMILES) | Kd [1] | Kd [2] | Kd [3] | Kd [4] | Kd (Glycine--tRNA ligase) | Kd (Ephrin type-A receptor 5) | Kd [5] | Kd (Ephrin type-A receptor 2) | Kd [6] | Kd [7] | Kd [8] | Kd [9] | Kd [10] | Kd [11] | Kd (Rab-like protein 3) | Kd [12] | Kd [13]
1 | CC(=O)c1cnc2ccc(-c3cc(Cl)c(O)c(Cl)c3)nc2c1N[C@H]1CC[C@H](CN(C)C)CC1 | > 30 µM (inactive) | 0.063 µM | 0.356 µM (active) | > 30 µM (inactive) | > 30 µM (inactive) | 0.075 µM (active) | > 30 µM (inactive) | 0.11 µM (active) | 0.28 µM (active) | 0.968 µM (active) | 0.233 µM (active) | > 30 µM (inactive) | 0.01 µM (active) | 0.361 µM (active) |  |  | 
2 | COCc1c(-c2ccc(NC(=O)Nc3cc(C(F)(F)F)ccc3F)c(F)c2)c2c(N)ncnn2c1CN1CCOCC1 | > 30 µM (inactive) |  | > 30 µM (inactive) | > 30 µM (inactive) | > 30 µM (inactive) | > 30 µM (inactive) | > 30 µM (inactive) | > 30 µM (inactive) | > 30 µM (inactive) | > 30 µM (inactive) | > 30 µM (inactive) | > 30 µM (inactive) | > 30 µM (inactive) | > 30 µM (inactive) | > 30 µM (inactive) | > 30 µM (inactive) | > 30 µM (inactive)
3 | Cc1nc(NC(=O)N2CCC[C@H]2C(N)=O)sc1-c1ccnc(C(C)(C)C(F)(F)F)c1 [ALPELISIB] | > 30 µM (inactive) | > 30 µM (inactive) | > 30 µM (inactive) | > 30 µM (inactive) | > 30 µM (inactive) | > 30 µM (inactive) | > 30 µM (inactive) | > 30 µM (inactive) | > 30 µM (inactive) | > 30 µM (inactive) | > 30 µM (inactive) | > 30 µM (inactive) | > 30 µM (inactive) | > 30 µM (inactive) |  | > 30 µM (inactive) | > 30 µM (inactive)
4 | NC(=O)Nc1cc(-c2cccc(F)c2)sc1C(=O)N[C@H]1CCCNC1 [AZD-7762] | > 30 µM (inactive) | > 30 µM (inactive) | 0.043 µM (active) | > 30 µM (inactive) | > 30 µM (inactive) | > 30 µM (inactive) | > 30 µM (inactive) | > 30 µM (inactive) | 0.61 µM (active) | 2.04 µM (active) | > 30 µM (inactive) | > 30 µM (inactive) | 1.68 µM (active) | 3.07 µM (active) | > 30 µM (inactive) | > 30 µM (inactive) | 
5 | CNC(=O)c1cccc2cc(Oc3ccnc4cc(OCC5(N)CC5)c(OC)cc34)ccc12 [LUCITANIB] | > 30 µM (inactive) | > 30 µM (inactive) | > 30 µM (inactive) | > 30 µM (inactive) | > 30 µM (inactive) | > 30 µM (inactive) | > 30 µM (inactive) | > 30 µM (inactive) | > 30 µM (inactive) | > 30 µM (inactive) | > 30 µM (inactive) | > 30 µM (inactive) | > 30 µM (inactive) | > 30 µM (inactive) |  | > 30 µM (inactive) | > 30 µM (inactive)
6 | CCOc1cc2ncc(C#N)c(Nc3ccc(F)c(Cl)c3)c2cc1NC(=O)/C=C/CN(C)C [PELITINIB] | > 30 µM (inactive) | > 30 µM (inactive) | > 30 µM (inactive) | > 30 µM (inactive) | > 30 µM (inactive) | > 30 µM (inactive) | > 30 µM (inactive) | > 30 µM (inactive) |  | 8.77 µM (active) | > 30 µM (inactive) | > 30 µM (inactive) | > 30 µM (inactive) | 0.514 µM (active) | > 30 µM (inactive) | > 30 µM (inactive) | > 30 µM (inactive)
7 | Cc1nc(Nc2n[nH]c3c2CN(C(=O)N[C@H](CN(C)C)c2ccccc2)C3(C)C)c2sccc2n1 [PF-03758309] | > 30 µM (inactive) | > 30 µM (inactive) | > 30 µM (inactive) | > 30 µM (inactive) | > 30 µM (inactive) | > 30 µM (inactive) | > 30 µM (inactive) | > 30 µM (inactive) | > 30 µM (inactive) | > 30 µM (inactive) | 5.89 µM (active) | > 30 µM (inactive) | > 30 µM (inactive) | 1.23 µM | > 30 µM (inactive) |  | 0.802 µM (active)
8 | CO[C@H]1C[C@@H]2CC[C@@H](C)[C@@](O)(O2)C(=O)C(=O)N2CCCC[C@H]2C(=O)O[C@H]([C@H](C)C[C@@H]2CC[C@@H](O)[C@H](OC)C2)CC(=O)[C@H](C)/C=C(\C)[C@@H](O)[C@@H](OC)C(=O)[C@H](C)C[C@H](C)/C=C/C=C/C=C/1C [SIROLIMUS] | > 30 µM (inactive) | > 30 µM (inactive) | > 30 µM (inactive) | > 30 µM (inactive) | > 30 µM (inactive) | > 30 µM (inactive) | > 30 µM (inactive) | > 30 µM (inactive) | > 30 µM (inactive) | > 30 µM (inactive) | > 30 µM (inactive) | > 30 µM (inactive) | > 30 µM (inactive) | > 30 µM (inactive) |  | > 30 µM (inactive) | > 30 µM (inactive)

Further lines, results first:

Row | Kd [1] | Kd [2] | Kd [3] | Kd [4] | Kd (Glycine--tRNA ligase) | Kd (Ephrin type-A receptor 5) | Kd [5] | Kd (Ephrin type-A receptor 2) | Kd [6] | Kd [7] | Kd [8] | Kd [9] | Kd [10] | Kd [11] | Kd (Rab-like protein 3) | Kd [12] | Kd [13] | Structure (SMILES)
9 | > 30 µM (inactive) | > 30 µM (inactive) | > 30 µM (inactive) | > 30 µM (inactive) | > 30 µM (inactive) | > 30 µM (inactive) | > 30 µM (inactive) | > 30 µM (inactive) | > 30 µM (inactive) |  | > 30 µM (inactive) | > 30 µM (inactive) | > 30 µM (inactive) | > 30 µM (inactive) |  | > 30 µM (inactive) | > 30 µM (inactive) | Cc1cc(C(=O)NOCCO)c(Nc2ccc(I)cc2F)n(C)c1=O [AZD-8330]
10 | > 30 µM (inactive) | > 30 µM (inactive) | > 30 µM (inactive) | > 30 µM (inactive) | > 30 µM (inactive) | 0.401 µM | > 30 µM (inactive) |  | 0.05 µM (active) | > 30 µM (inactive) | > 30 µM (inactive) | > 30 µM (inactive) | > 30 µM (inactive) | > 30 µM (inactive) | > 30 µM (inactive) | > 30 µM (inactive) | 0.98 µM (active) | COc1cc2ncnc(Oc3cccc(NC(=O)Nc4cc(C(C)(C)C(F)(F)F)on4)c3)c2cc1OC [CEP-32496]
